# According to PMC7139549, “TLD1433 Photosensitizer Inhibits Conjunctival Melanoma Cells in Zebrafish Ectopic and Orthotopic Tumour Models” (Cancers, 2020):
# Columns and labels:
# [1] = test system: eye melanoma cells; assay: SRB cell viability assay, eye melanoma cells; assay type: cell-based, Human
# Procedure: TLD1433 is known to generate reactive oxygen species (ROS) with high quantum efficacy in many cancer cell lines. However, there is no report of the in vitro toxicity of this compound in eye melanoma (UM) cell lines. We determined the cell viability of three conjunctival melanoma cell lines (CRMM1, CRMM2 and CM2005.1), and three uveal melanoma cell lines (OMM1, OMM2.5, MEL270) in the presence of TLD1433, both in the dark or under green light irradiation (21 mW/cm^2, 19 J/cm^2, 520 nm, 15 min), and compared this viability to epidermoid carcinoma A431 and cutaneous melanoma A375 cell lines under the same conditions. […] The phototoxicity index (PI), defined as the ratio of the dark EC50 to the light EC50, was also calculated and represents the amplification of TLD1433 activity with a light trigger. […]
# At day 0, cells were detached using 1mL of trypsin, resuspended in 4 mL of media and transferred to a 15 mL corning falcon tube. Cells were counted using trypan blue and BioRad® TC20™ automated cell counter (Figure 11). Dilutions of 6000 (CRMM1), 6000 (CRMM2), 8000 (CM2005.1), 6000 (OMM1), 6000 (OMM2.5), 6000 (MEL270) 8000 (A431), and 4000 (A375) cells/well were calculated from each cell suspension at a final volume of 6 mL using the following formula: Vc=(Vt×10C)/Lc where Vt = total volume of solution, C = number of cells per well/per 100 μL and Lc = live cells count (cells/mL). […]
# [2] = test system: wild type zebrafish embryos; assay: Maximum tolerated dose in wild type zebrafish embryos; assay type: in vivo; details: for Maximum Tolerated Dose (MTD): Wild Type Embryos, 4 treatments, 90 min green light 114 J.cm^−2; for concentration not toxic to embryos in the dark: wild type embryos
# Procedure: Water administration (WA) of drugs by skin epithelial cell absorption and drinking is commonly used in zebrafish drug experiments. […] In addition, we also tested IV of TLD1433 by direct injection into the dorsal vein, as well behind the eye injections for RO administration. For IV and RO administration, the compound was injected four times into the embryos at 3, 4, 5 and 6dpf, followed by 60 min drug-to-light interval and the same kinetic and irradiation regime as for the WA administration (Figure 5A).
# (A) Schedule of TLD1433 treatment in wild type zebrafish. […] (B) WA, (C) IV, (D) RO. (B–D) Images were made of irradiated (light) and non-irradiated (dark) embryos (n = 30) at 6dpf and the percentages of mortality, malformation and fish length were calculated (shown as means ± SD from three independent experiments). Representative images of embryos under dark and light conditions are shown.
# At 2.5, 3.5, 4.5, 5.5 dpf, TLD1433 was added to the fish water and maintained for 12 h. […] At 3, 4, 5, 6 dpf, 1nL of TLD1433 was injected via the dorsal vein or the RO site and maintained for 1 h. […] The images of treated and wild type embryos at 6 dpf were taken using a DFC420C camera coupled to a Leica MZ16FA fluorescence microscope. In order to determine the MTD of tumour cell bearing zebrafish, TLD1433 was performed according to the same procedure, delivered by WA, IV and […] administration as described above for the wild type embryos.
smiles,measurement,setting,value
Cc1ccnc(-c2cc(C)ccn2)c1.Cc1ccnc(-c2cc(C)ccn2)c1.[Cl-].[Cl-].[Ru+2].c1csc(-c2ccc(-c3ccc(-c4nc5c6cccnc6c6ncccc6c5[nH]4)s3)s2)c1 [TLD1433],EC50,"[1]; dark, read-out: EC50 (dark toxicity)",~1000 nM
same,EC50 upon light activation (in words),[1]; green light 19 J/cm^2,in the nanomolar regime
same,Maximum Tolerated Dose (MTD),"[2]; Intravenous 1 nL, 60 min DLI",4.6 mM
same,Maximum Tolerated Dose (MTD),"[2]; Retro-orbital 1 nL, 60 min DLI",4.6 mM
same,Maximum Tolerated Dose (MTD),"[2]; Water administration, 12 h DLI",9.2e-06 mM
same,concentration not toxic to embryos in the dark,[2]; IV 1 nL,11500 µM
same,concentration not toxic to embryos in the dark,[2]; RO 1 nL,11500 µM
same,concentration not toxic to embryos in the dark,[2]; WA,0.023 µM
